The nature of data set [1]: Body weight and physiological status of glioma-bearing nude mice. Format: in vivo. As to conditions: 20 mg/kg/day i.v., 11 days. As for the experimental part:
(§1) The orthotopic U87-mCherry-luc glioma-bearing nude mice were randomly assigned to 6 groups (n = 5) according to the bioluminescence intensity of glioma measured on day 4. […] The bioluminescence intensity was measured on days 4, 7, 11, and 14, respectively. Nude mice were weighed daily. On day 15, the mice were sacrificed, and the glioma-bearing brains were harvested. The brain tissues were fixed with 4.0% paraformaldehyde, embedded in paraffin, and cut into slices. The TUNEL staining and CD31 immunohistochemical staining were conducted according to standard histological procedures.

Data set [2] deals with U87-mCherry-luc glioma tissue. Briefly: TUNEL staining of glioma tissue. Format: in vivo, nude mice. As to conditions: 20 mg/kg/day i.v., 11 days; tissue at day 15; n = 3. Here is the method: as §1
Data set [3] relates to glioma blood vessels (CD31). Briefly: CD31 immunohistochemical staining of glioma tissue (blood vessel density). It counts as in vivo, nude mice. To be noted: 20 mg/kg/day i.v., 11 days; tissue at day 15; n = 3. Here is the method:
as §1

Data set [4] has as its system HUVECs. Briefly: Tube formation assay on Matrigel. It counts as cell-based, human. As to conditions: 160 μmol/L, VEGF-A165 30 ng/mL, 6 h, n = 3. As for the experimental part: Matrigel was added to 96-well plates with 60 min of incubation at 37 °C for solidification. […] The tubular structures were observed under an inverted microscope and the total branching lengths were calculated by the ImageJ V 1.8.0 software.

Data set [5] concerns HUVECs. Nature of the data set: Transwell invasion assay. Format: cell-based, human. As to conditions: 160 μmol/L; VEGF-A165 30 ng/mL; 24 h; n = 3. Here is the method: Matrigel was diluted in serum-free F-12K medium (dilution ratio 1:5) and was coated onto each transwell chamber and incubated at 37 °C for 2 h. HUVECs were seeded in the upper compartment of the transwell chamber at a density of 2 × 10^4 cells/well. F-12K medium (containing 20% serum) was added to the lower chamber. […] Then, the medium was aspirated, and the chambers were washed with PBS and placed in a fixative for 30 min, stained with 0.1% crystal violet for 30 min, washed with PBS, and dried. An inverted fluorescence microscope was used to photograph the chambers, and the number of invaded cells was counted. The cells that migrated to the bottom of the chamber were photographed with an inverted microscope.

For the compound `CC(C)C[C@H](NC(=O)[C@H](Cc1c[nH]c2ccccc12)NC(=O)[C@@H](NC(=O)[C@H](C)NC(=O)[C@H](CS)NC(=O)[C@H](CCCNC(=N)N)NC(=O)[C@H](CCCNC(=N)N)NC(=O)[C@H](CCCNC(=N)N)NC(=O)[C@H](CCC(N)=O)NC(=O)[C@H](CCCNC(=N)N)NC(=O)[C@H](CCCNC(=N)N)NC(=O)[C@H](CCCCN)NC(=O)[C@H](CCCCN)NC(=O)[C@@H](N)CCCNC(=N)N)[C@@H](C)O)C(=O)N1CCC[C@H]1C(=O)N1CCC[C@H]1C(=O)N[C@@H](CCCNC(=N)N)C(=O)O` [TAT-AT7], in data set [1], the “rate of weight loss” value is on record as “slower than that in the normal saline group”. Also, the “toxicity and safety in nude mice” value in data set [1] (body weight and physiological status, 14th day) is “less toxicity and better safety for nude mice”. Further, the “number of apoptotic cells (TUNEL)” value in data set [2] was “significantly higher than that in the saline, AT7, TAT, and TAT+AT7 groups”. Besides, the “blood vessel density (CD31)” value in data set [3] was “significantly lower than that in the other groups”. The “formation of tubular structures” value with HUVECs [4] is listed as “significantly inhibit the formation of tubular structures in HUVECs”. Besides, the “total branch length of the tubular structure” value in the data set on HUVECs [4] (vs AT7, TAT, and TAT+AT7 groups) is given as “significantly reduced”. In the data set on HUVECs [5], the invasion rate entry was “significantly lower than that of the other groups”.
